The test system of one series is JeKo-1 cells. The series is described as follows: Cell viability, Annexin V/PI assay (also IC50 and combination index). In kind it is cell-based. To be noted: for % viability normalized for respective controls: JeKo-1 (MCL), 48 hours, KPT-330 0.1-1.0 μM, CS 1-3 mM, single agent or combination. On the procedure:
(§1) To assess apoptosis and cellular proliferation, all cell lines were treated with CRM 1 inhibitors (concentration ranging from 0.05-2 μM) and salicylates at concentrations ranging from (0.001-10 mM) for 48 hours before analysis was performed. DMSO was used to substitute the drug in controls.
After 48 hours incubation, cells were washed with Annexin buffer solution and stained with both propidium iodide (PI) and FITC-Annexin V (Life Technologies), and assayed on a BD Accuri flow cytometer (BD Biosciences). Apoptosis results were analyzed with BD CellQuest software. For cell cycle analysis, Jeko-1 cell line was intubated with CRM 1 inhibitors (concentrations ranging from […]) and salicylates (concentration at 3 mM) and Ly-1 cell line was intubated with CRM 1 inhibitors (concentrations ranging from 0.1-2.0 μM) and salicylates (concentration at 0.5-5 mM) for 24 and 48 hours and then fixed with 95% cold ethanol and kept at 4 C° for 24 h and subsequently underwent cell cycle analysis after PI staining and analysis was performed using BD FACS caliber flow cytometer (BD Biosciences) and FlowJo software (Tree Star).
(§2) Cell lines were purchased from the cell line repositories ATCC (Manassas, Va.) or DSMZ (Braunschweig, Germany). These included MCL cell lines: JeKo-1, Mino; TCL cell lines: Karpas-299, SR-786; DLBCL cell lines: OCI-Ly1 (LY-1), OCI-Ly3 (LY-3), OCI-Ly19 (LY-19), SU-DHL-6 (DHL-6); MM cell lines: RPMI, U266, OPM2, Xgl, KMS2; ALL cell lines: CRL-1783; non-small cell lung cancer: NCI-H460, A549, HCC827; small cell lung cancer: H1048; sarcoma: Fuji, SW872. Cell lines were cultured according to instruction.
(§3) KPT-330 purchased from Selleckchem (cat no: S7252) was dissolved in DMSO while CS (Santa Cruz, Calif.S 2016-36-6), sodium salicylate (Sigma-Aldrich, cat no: S3007), acetyl salicylate (Sigma-Aldrich, cat no: CAS 50-78-2) was diluted in PBS. Ketorolac (Sigma-Aldrich, cat no: 1356665), Bortezomib (Selleckchem, cat no: S1013), gemcitabine (Sigma-Aldrich, cat no: G6423), Leptomycin-B (Sigma-Aldrich, cat no: L2913-2X) and KPT-185 (Selleckchem, cat no: S7125) were dissolved in DMSO. The concentration range of KPT-330 was 0.05-1.0 μM while CS was 1-3 mM were used for ex vivo treatment and incubation time ranged from 24 hours to 72 hours. For the PARP inhibitor assay, olaparib 10 μM (SelleckChem, cat no: AZD2281 Ku-0059436) was used.
(§4) The viability assessment for cell lines and primary patients samples were conducted with the Annexin V/PI method.
Jeko-1 and OCI-Ly1 cell lines were used to assess the IC50. Keeping CS at 3 mM, KPT-330 was titrated. Relative IC50 was calculated as described elsewhere (see, e.g., Sebaugh et al., Pharmaceutical statistics 10:128-134 (2011)). The combination index was calculated as described elsewhere (see, e.g., Chou et al., Cancer Res 70:440-446 (2010)).

Another series concerns OCI-Ly3 cells. The series is described as follows: Cell viability, Annexin V/PI assay. It counts as cell-based. To be noted: OCI-Ly3 (DLBCL); 48 hours; KPT-330 0.1-1.0 μM, CS 1-3 mM, single agent or combination. On the procedure: DMSO was used to substitute the drug in controls.
Apoptosis results were analyzed with BD CellQuest software.
Cell lines were cultured according to instruction.

In the next series the test system is MWCL cells. Put plainly: Cell viability, Annexin V/PI assay. It counts as cell-based. The note with it: MWCL (WM); 48 hours; KPT-330 0.1-1.0 μM, CS 1-3 mM, single agent or combination. The procedure: (§5) All cell lines were obtained from commercial vendors (ATCC or DSMZ), which includes mantle cell lymphoma (MCL) cell lines: Jeko-1, Mino, JVM-2; T-cell lymphoma (TCL) cell lines: SU-DHL-1, Karpas-299, SR-786 and HUT-78; and diffuse large B-cell lymphoma cell lines: OCI-Ly1, SU-DHL-2, OCI-Ly3, SU-DHL-6; Waldenstrom macroglobulinemia (WM) cell lines: BCWM, MWCL, RPCI; sarcoma cell lines: FUJI, SW872, and pancreatic cancer cell lines: PANC-1.
(§6) WM, TCL, and MCL cell lines were cultured in RPMI media supplemented with 10% fetal bovine serum while DLBCL cell lines were cultured in IMDM media with 10% human serum (Sigma). Pancreatic cancer and sarcoma cell lines were cultured in DMEM with 10% fetal bovine serum. All cell lines were assessed for their viability before use in experiments. Only cells with the viability of 85% or greater were used.

A further series has as its system Panc-1 cells. Put plainly: Cell viability, Annexin V/PI assay. In kind it is cell-based. To be noted: Panc-1 (Pancreatic cancer); 48 hours; KPT-330 0.1-1.0 μM, CS 1-3 mM, single agent or combination. On the procedure:
as §5, §6

A further series deals with BCWM cells. The series is described as follows: Cell viability, Annexin V/PI assay. The note with it: BCWM (WM); 48 hours; KPT-330 0.1-1.0 μM, CS 1-3 mM, single agent or combination. In kind it is cell-based. On the procedure: as §5, §6
Another series deals with RPCI cells. Put plainly: Cell viability, Annexin V/PI assay. It counts as cell-based. The note with it: RPCI (WM); 48 hours; KPT-330 0.1-1.0 μM, CS 1-3 mM, single agent or combination. The procedure:
as §5, §6

The next series relates to OCI-Ly1 cells. Put plainly: Cell viability, Annexin V/PI assay (also IC50 and combination index). The procedure:
as §1
After 48 hours incubation, cells were washed with Annexin buffer solution and stained with both propidium iodide (PI) and FITC-Annexin V (Life Technologies), and assayed on a BD Accuri flow cytometer (BD Biosciences). Apoptosis results were analyzed with BD CellQuest software. […]
Jeko-1 and OCI-Ly1 cell lines were used to assess the IC50. […] Relative IC50 was calculated as described elsewhere (see, e.g., Sebaugh et al., Pharmaceutical statistics 10:128-134 (2011)). The combination index was calculated as described elsewhere (see, e.g., Chou et al., Cancer Res 70:440-446 (2010)).

For a further series, the system named is H460 cells. The series is described as follows: Cell viability, Annexin V/PI assay. In kind it is cell-based. The note with it: H460 (Non-small cell lung cancer); 48 hours; KPT-330 0.1-1.0 μM, CS 1-3 mM, single agent or combination. The procedure:
as §2, §3, §4

For another series, the system named is Mino cells. The series is described as follows: Cell viability, Annexin V/PI assay. In kind it is cell-based. The note with it: Mino (MCL); 48 hours; KPT-330 0.1-1.0 μM, CS 1-3 mM, single agent or combination. On the procedure: as §2, §3, §4
Another series deals with KMS2 cells. The series is described as follows: Cell viability, Annexin V/PI assay. In kind it is cell-based. The note with it: KMS2 (MM); 48 hours; KPT-330 0.1-1.0 μM, CS 1-3 mM, single agent or combination. The procedure: as §2, §3, §4
The next series deals with Xg1 cells. The series is described as follows: Cell viability, Annexin V/PI assay. In kind it is cell-based. To be noted: Xg1 (MM); 48 hours; KPT-330 0.1-1.0 μM, CS 1-3 mM, single agent or combination. The procedure: as §2, §3, §4
The subject of the next series is H1048 cells. The series is described as follows: Cell viability, Annexin V/PI assay. It counts as cell-based. The note with it: H1048 (Small-cell lung cancer); 48 hours; KPT-330 0.1-1.0 μM, CS 1-3 mM, single agent or combination. The procedure:
as §2, §3, §4

The next series relates to BT-20 cells. Put plainly: Cell viability, Annexin V/PI assay. It counts as cell-based. To be noted: BT-20 (Breast cancer); 48 hours; KPT-330 0.1-1.0 μM, CS 1-3 mM, single agent or combination.

Procedure for BT-20 cells: KPT-330 purchased from Selleckchem (cat no: S7252) was dissolved in DMSO while CS (Santa Cruz, Calif.S 2016-36-6), sodium salicylate (Sigma-Aldrich, cat no: S3007), acetyl salicylate (Sigma-Aldrich, cat no: CAS 50-78-2) was diluted in PBS. […] The concentration range of KPT-330 was 0.05-1.0 μM while CS was 1-3 mM were used for ex vivo treatment and incubation time ranged from 24 hours to 72 hours.

As to `C[N+](C)(C)CCO.O=C([O-])c1ccccc1O` [CS, choline salicylate], the “% viability normalized for respective controls” value (“% viability normalized” for short) was 93% in the series on JeKo-1 cells; 84% with OCI-Ly3 cells; 89% in the series with MWCL cells; 90% with Panc-1 cells; 84% with BCWM cells; 92% in the series with RPCI cells. Also, the “% viability normalized” value in the series with OCI-Ly1 cells (OCI-Ly1 (DLBCL), 48 hours, KPT-330 0.1-1.0 μM, CS 1-3 mM, single agent or combination) is recorded as 101%; in the series with H460 cells, 105%; in the series on Mino cells it was 86%; with KMS2 cells, 83%; in the series with Xg1 cells it was 95%; with H1048 cells, 92%. In addition, the “% viability normalized” value with BT-20 cells is listed as 89%.

For the compound `O=C(/C=C\n1cnc(-c2cc(C(F)(F)F)cc(C(F)(F)F)c2)n1)NNc1cnccn1` [KPT-330, (Z)-3-[3-[3,5-bis (trifluoromethyl)phenyl]-1,2,4-triazol-1-yl]-N′-pyrazin-2-ylprop-2-enehydrazide], the IC50 was determined as 1300 nM with JeKo-1 cells (Homo sapiens, JeKo-1 (MCL cells), 72 hours, selinexor titrated alone or with CS kept at 3 mM) and 1800 nM with OCI-Ly1 cells (Homo sapiens, OCI-Ly1, 72 h). In addition, the “% viability normalized” value in the series on JeKo-1 cells was found to be 95%; with OCI-Ly3 cells, 85%; with MWCL cells, 65%; with Panc-1 cells it was 90%; in the series with BCWM cells, 69%; in the series with RPCI cells it was 63%. The “% viability normalized” value in the series on H460 cells is given as 93%; in the series with Mino cells, 89%; in the series on KMS2 cells, 79%; in the series with Xg1 cells it was 76%; in the series with H1048 cells it was 81%; in the series on BT-20 cells, 58%.

For orientation: IC50 means the concentration that gives 50% inhibition.
